Reference: patent US7138403B2, “2,4,5-trisubstituted thiazolyl derivatives and their antiinflammatory activity” (Janssen Pharmaceutica N.V., priority 2001, dated 2006)

These compounds were tested on IL-12p70 production (assay: In vitro inhibition of IL-12p70 production in human blood (LPS-stimulated whole blood, ELISA)). Details: test dose 1 × 10^−8 M, LPS 100 ng/ml, 24 hours, read-out: % inhib. IL-12 (p70).
Assay type: cell-based
Experimental: In Vitro Inhibition of IL-12p70 Production in Human Blood Human Whole Blood Stimulation Peripheral blood from healthy donors was drawn into heparinized syringes (12.5 U heparin/ml). Blood samples were three-fold diluted in RMPI 1640 medium (Life Technologies, Belgium) supplemented with 2 mM L-glutamine, 100 U/ml penicillin and 100 μg/ml streptomycin, and 200 μl fractions were distributed in 96-well plates (Nunc, Roskilde, Denmark). Blood samples were preincubated (5 minutes at 37° C.) in a humidified 5% CO2-atmosphere with 25 μl of drug solvent (final concentration 0.1% dimethylsulfoxide in RPMI 1640) or with 25 μl of an appropriate dose of test compound before being stimulated by the addition of 25 μl of lipopolysaccharide at a final concentration of 100 ng/ml. After 24 hours, cell-free supernatant fluids were collected by centrifugation and stored at −20° C. until tested for the presence of IL-12. Cytokine Measurements Cytokine protein concentrations were determined by sandwich ELISA as described in Van Wauwe et al. (1996, Inflamm Res, 45,357–363). The quantikine HS kit (R &D HS120, Abingdon, United Kingdom) was used to quantify the cytokine levels (IL12 p70) in the supernatant
Compound `Cc1nc(-c2ccc(C(F)(F)F)cc2)sc1-c1ccnc(N)n1` [Compound 9] has an inhibition at 0.01 µM of 92%.
In the case of `Cc1nc(-c2ccc(C(F)(F)F)cc2)sc1-c1ncnc(N)n1` [Compound 81], the inhibition at 0.01 µM is reported as 94%.
`Cc1nc(-c2ccc(C(F)(F)F)cc2)sc1-c1ccnc(NCCC(=O)O)n1` [Compound 84] gave an inhibition at 0.01 µM of 95%.
For `Cc1nc(-c2ccc(C(F)(F)F)cc2)sc1-c1ccnc(N(CCO)CCO)n1` [Compound 70], the inhibition at 0.01 µM was 90%.
For `Cc1nccc(-c2sc(-c3ccc(C(F)(F)F)cc3)nc2C)n1` [Compound 35], the inhibition at 0.01 µM was 94%.

The compounds below were run on IL-12p40 production (assay: In vitro inhibition of IL-12p40 production in human blood (LPS-stimulated whole blood, ELISA)). Details: test dose 1 × 10^−6 M, LPS 100 ng/ml, 24 hours, read-out: % inhib. IL-12 (p40).
Assay type: cell-based
Experimental: In Vitro Inhibition of IL-12p40 Production in Human Blood
Human Whole Blood Stimulation
Peripheral blood from healthy male donors was drawn into heparinized syringes (12.5 U heparin/ml). Blood samples were three-fold diluted in RMPI 1640 medium (Life Technologies, Belgium) supplemented with 2 mM L-glutamine, 100 U/ml penicillin and 100 μg/ml streptomycin, and 300 μl fractions were distributed in 24-well multidisc plates (Nunc, Roskilde, Denmark). Blood samples were preincubated (60 minutes at 37° C.) in a humidified 6% CO2-atmosphere with 100 µl of drug solvent (final concentration 0.02% dimethylsulfoxide in RPMI 1640) or with 100 μl of an appropriate dose of test compound before being stimulated by the addition of 100 μl of lipopolysaccharide at a final concentration of 100 ng/ml. After 24 hours, cell-free supernatant fluids were collected by centrifugation and stored at −20° C. until tested for the presence of IL-12 p40.
Cytokine protein concentrations were determined by sandwich ELISA as described in Van Wauwe et al. (1996, Inflamm Res, 45, 357–363). Murine monoclonals used as capture antibodies to human cytokines were obtained from R&D Systems (Abingdon, United Kingdom) and code named MAB210 and MAB611 for TNF-α and IL-12 p40 respectively. Biotinylated goat polyclonal antibodies used to detect human cytokines were from R&D Systems (BAF210, BAF219). Cytokine levels were calculated from standard curves using recombinant cytokines supplied by R&D Systems.
`Cc1nc(-c2ccc(C(F)(F)F)cc2)sc1-c1nc(N)ncc1F` [Compound 49] gave an inhibition at 1 µM of 92%.
`Cc1nc(-c2ccc(C(F)(F)F)cc2)sc1-c1ccnc(N)n1` [Compound 9] gave an inhibition at 1 µM of 57%.
`Cc1nc(-c2ccc(C(F)(F)F)cc2)sc1-c1cc(O)nc(N)n1` [Compound 80] gave an inhibition at 1 µM of 49%.
Compound `COc1nccc(-c2sc(-c3ccc(C(F)(F)F)cc3)nc2C)n1` [Compound 83] has an inhibition at 1 µM of 59%.
`Cc1nc(-c2ccc(C(F)(F)F)cc2)sc1-c1ccnc(C#N)n1` [Compound 40] was tested, and the inhibition at 1 µM was 93%.
For `Cc1nc(-c2ccc(C(F)(F)F)cc2)sc1-c1ccnc(NCCCN)n1` [Compound 38], the inhibition at 1 µM was 93%.
For `Cc1nc(-c2ccc(C(F)(F)F)cc2)sc1-c1ccnc(NCC(=O)O)n1` [Compound 90], the inhibition at 1 µM was 56%.
